Assay results from ChEMBL document CHEMBL1817621, “SAR studies of acidic dual γ-secretase/PPARγ modulators” (Bioorg Med Chem, 2011).
Activity calls are given as the source filed them. The rule behind the calls is not given here.

What was measured:
[1] = target: T1, Prostaglandin G/H synthase 1 (Ovis aries) (UniProt P05979); test: Inhibition of ovine COX-1 assessed as residual activity by measuring formation of 12-HHT from arachidonic acid at 10 uM by HPLC analysis
T1 sequence (whole entry): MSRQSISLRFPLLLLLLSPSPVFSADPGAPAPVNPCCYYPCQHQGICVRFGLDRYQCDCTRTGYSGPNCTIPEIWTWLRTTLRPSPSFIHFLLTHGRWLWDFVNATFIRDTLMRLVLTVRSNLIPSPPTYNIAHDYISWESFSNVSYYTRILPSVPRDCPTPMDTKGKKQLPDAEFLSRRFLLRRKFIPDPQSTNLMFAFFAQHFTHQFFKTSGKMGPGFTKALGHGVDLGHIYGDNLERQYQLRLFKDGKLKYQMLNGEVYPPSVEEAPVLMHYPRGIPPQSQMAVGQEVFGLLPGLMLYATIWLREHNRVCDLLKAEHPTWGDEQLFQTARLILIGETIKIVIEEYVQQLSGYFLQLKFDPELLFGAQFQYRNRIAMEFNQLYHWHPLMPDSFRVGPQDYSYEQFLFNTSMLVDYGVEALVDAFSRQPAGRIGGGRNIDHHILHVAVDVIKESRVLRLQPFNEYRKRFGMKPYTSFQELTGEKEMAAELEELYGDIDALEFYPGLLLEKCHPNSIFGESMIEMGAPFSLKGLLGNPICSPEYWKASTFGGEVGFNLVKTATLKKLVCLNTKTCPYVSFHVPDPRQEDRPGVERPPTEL

[2] = Modulation of gamma-secretase expressed in CHO cells co-expressing human APP and wild type human presenilin-1 assessed as reduction of amyloid beta38 production by ELISA
[3] = target: T2, Peroxisome proliferator-activated receptor delta (Homo sapiens) (UniProt Q03181); test: Modulation of human PPARdelta-LBD expressed in african green monkey COS7 cells co-transfected with Gal4 assessed as activation of transactivation activity at 10 uM by luciferase assay; format: cell-based; conditions: COS-7
T2 sequence (whole entry): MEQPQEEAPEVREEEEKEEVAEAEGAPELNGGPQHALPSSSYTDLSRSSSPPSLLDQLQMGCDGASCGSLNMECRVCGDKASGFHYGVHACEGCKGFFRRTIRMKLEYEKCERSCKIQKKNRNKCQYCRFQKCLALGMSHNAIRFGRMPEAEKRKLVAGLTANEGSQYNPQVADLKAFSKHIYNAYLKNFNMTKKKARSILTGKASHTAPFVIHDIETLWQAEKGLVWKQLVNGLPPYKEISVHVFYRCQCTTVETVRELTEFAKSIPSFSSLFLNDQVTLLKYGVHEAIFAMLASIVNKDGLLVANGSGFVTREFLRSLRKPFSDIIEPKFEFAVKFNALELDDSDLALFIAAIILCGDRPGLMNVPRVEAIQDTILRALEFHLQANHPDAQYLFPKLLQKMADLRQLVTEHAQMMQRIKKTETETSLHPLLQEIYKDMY

[4] = target: T3, Peroxisome proliferator-activated receptor gamma (Homo sapiens) (UniProt P37231); test: Modulation of human PPARgamma-LBD expressed in african green monkey COS7 cells co-transfected with Gal4 assessed as activation of transactivation activity at 10 uM by luciferase assay; format: cell-based; conditions: COS-7
T3 sequence (whole entry): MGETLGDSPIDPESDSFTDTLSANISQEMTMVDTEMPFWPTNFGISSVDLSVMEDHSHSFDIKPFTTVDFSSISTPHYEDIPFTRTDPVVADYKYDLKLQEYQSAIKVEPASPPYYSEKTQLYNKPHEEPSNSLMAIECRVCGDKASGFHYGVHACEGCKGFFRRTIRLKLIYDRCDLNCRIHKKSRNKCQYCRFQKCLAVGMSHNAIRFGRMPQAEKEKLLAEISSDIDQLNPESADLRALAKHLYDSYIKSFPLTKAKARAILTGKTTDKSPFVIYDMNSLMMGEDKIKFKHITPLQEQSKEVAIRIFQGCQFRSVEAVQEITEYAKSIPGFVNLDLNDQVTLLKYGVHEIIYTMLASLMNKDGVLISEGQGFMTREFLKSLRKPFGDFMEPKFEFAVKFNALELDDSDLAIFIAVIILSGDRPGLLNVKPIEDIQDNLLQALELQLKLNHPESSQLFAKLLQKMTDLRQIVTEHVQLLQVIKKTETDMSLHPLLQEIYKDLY

[5] = target: T4, Peroxisome proliferator-activated receptor alpha (Homo sapiens) (UniProt Q07869); test: Modulation of human PPARalpha-LBD expressed in african green monkey COS7 cells co-transfected with Gal4 assessed as activation of transactivation activity at 10 uM by luciferase assay; format: cell-based; conditions: COS-7
T4 sequence (whole entry): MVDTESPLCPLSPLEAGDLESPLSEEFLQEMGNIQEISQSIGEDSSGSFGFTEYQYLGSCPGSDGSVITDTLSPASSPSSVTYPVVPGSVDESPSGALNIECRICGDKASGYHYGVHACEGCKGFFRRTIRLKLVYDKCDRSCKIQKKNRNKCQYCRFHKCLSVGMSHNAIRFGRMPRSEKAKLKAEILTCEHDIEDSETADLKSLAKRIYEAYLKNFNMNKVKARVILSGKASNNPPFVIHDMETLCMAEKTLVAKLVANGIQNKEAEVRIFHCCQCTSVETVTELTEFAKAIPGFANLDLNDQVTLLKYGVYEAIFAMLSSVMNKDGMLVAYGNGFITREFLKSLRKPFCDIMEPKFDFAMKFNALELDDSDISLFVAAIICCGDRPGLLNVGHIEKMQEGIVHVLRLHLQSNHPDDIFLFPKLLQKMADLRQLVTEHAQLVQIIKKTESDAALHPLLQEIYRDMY

[6] = target: T5, Prostaglandin G/H synthase 2 (Homo sapiens) (UniProt P35354); test: Inhibition of human recombinant COX-2 assessed as residual activity by measuring formation of 12-HHT from arachidonic acid at 10 uM by HPLC analysis
T5 sequence (whole entry): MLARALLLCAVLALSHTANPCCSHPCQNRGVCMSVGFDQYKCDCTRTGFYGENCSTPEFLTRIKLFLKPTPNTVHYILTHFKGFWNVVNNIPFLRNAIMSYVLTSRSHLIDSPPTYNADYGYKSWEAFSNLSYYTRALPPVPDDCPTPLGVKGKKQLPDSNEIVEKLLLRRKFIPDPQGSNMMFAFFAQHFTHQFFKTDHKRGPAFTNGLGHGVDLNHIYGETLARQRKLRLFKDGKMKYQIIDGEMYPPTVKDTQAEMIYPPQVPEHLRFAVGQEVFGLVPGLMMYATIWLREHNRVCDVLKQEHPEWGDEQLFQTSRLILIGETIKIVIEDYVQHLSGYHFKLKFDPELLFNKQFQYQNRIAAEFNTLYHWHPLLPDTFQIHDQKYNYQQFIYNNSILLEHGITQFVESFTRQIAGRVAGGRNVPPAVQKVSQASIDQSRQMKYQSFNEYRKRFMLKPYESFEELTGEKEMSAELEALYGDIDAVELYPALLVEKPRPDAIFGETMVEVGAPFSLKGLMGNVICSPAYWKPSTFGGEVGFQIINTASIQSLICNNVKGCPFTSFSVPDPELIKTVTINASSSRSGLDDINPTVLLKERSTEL

CHO [7] = test: Cytotoxicity against CHO cells expressing human APP and wild type human presenilin-1 assessed as reduction of cell viability up to 40 uM after 24 hrs by Alamar blue assay; format: cell-based, Cricetulus griseus; conditions: chinese hamster
[8] = target: T6, Prostaglandin G/H synthase 1 (Ovis aries, UniProt P05979)
T6 sequence (P05979 whole entry): T1 sequence (whole entry)
Description: Inhibition of ovine COX-1 assessed as residual activity by measuring formation of 12-HHT from arachidonic acid by HPLC analysis

[9] = Modulation of gamma-secretase expressed in CHO cells co-expressing human APP and wild type human presenilin-1 assessed as inhibition of amyloid beta42 production by ELISA; format: cell-based
CHO [10] = test: Inhibition of gamma-secretase-mediated notch signaling expressed in CHO cells transfected with Gal4-DNA-binding/VP16 transactivation domain assessed as reduction of reporter activity up to 30 uM by luciferase assay; format: cell-based
[11] = Selectivity ratio of inhibition of gamma-secretase-mediated notch signaling to modulation of gamma-secretase
[12] = Modulation of gamma-secretase expressed in CHO cells co-expressing human APP and wild type human presenilin-1 assessed as increase of amyloid beta38 production by ELISA; format: cell-based

SMILES | Activity [1] [%] | IC50 [2] [µM] | Activity [3] | Activity [4] | Activity [5] | Activity [6] [%] | Activity (CHO [7]) | IC50 [8] [µM] | IC50 [9] [µM] | inhibition (CHO [10]) | Ratio [11] | EC50 [12] [µM]
CCCCC(Cc1ccc(OCCc2ccccc2)cc1OCCc1ccccc1)C(=O)O (stereo not drawn) | 99.1 | 5 | inactive | inactive | inactive | 110 | Non-toxic | – | – | – | – | –
CCCCC(Sc1nc(OCCc2ccccc2)cc(OCCc2ccccc2)n1)C(=O)O (stereo not drawn) | – | – | – | – | – | – | – | 16.7 | – | – | – | –
CCCC/C(=C\c1cc(OCCC2CCCCC2)ccc1OCCC1CCCCC1)C(=O)O | 76.4 | – | inactive | 75% | inactive | 123 | Non-toxic | – | 3.9 | inactive | 8 | 3.1
